Measured values reported in article PMC4351150 (Cancer immunology research, 2015).
Where “and” joins values, the source holds several entries; their conditions need not be identical. Identical values can stand only once.

Experiments:
CD8^+ cells = assay type: cell-based; conditions: UNC-CDK4-1-pulsed T2 cells as stimulators; % of CD8^+ cells (Supplementary Figure 1)
[1] = tested on: CD8^+ TCRβ repertoire of Patient 5; assay: Bulk TCRβ repertoire sequencing: mapping of tetramer-associated TCRβ clonotypes; set-up: species or system human; conditions: for total share of tetramer-associated TCRβ clonotypes in TCRβ repertoire: Patient 5, sample 2 months later, 3×10^6 CD8^+ cells, Illumina HiSeq
HLA-A*02:01 = HLA-A*02:01 (Homo sapiens, UniProt P04439, D140Y/D185E/D98H/E176V/E277Q/G131W/G231S/I119V/I121R/I166T/I218V/L300P/L318F/N151K/N90K/P208A/P217A/Q86G/Q94H/R138H/R169H/T345S); assay: iTopia binding affinity assay
[2] = tested on: CD8^+ T cells of HLA-A*02:01-expressing post-SCT AML patients; assay: PE-peptide/HLA-A*02:01 tetramer flow cytometry of post-SCT AML patient PBMCs; assay type: cell-based

Row | Sequence | CD8^+ cells specific for UNC-CDK4-1 (CD8^+ cells) | total share of tetramer-associated TCRβ clonotypes in TCRβ repertoire [1] | mean enrichment ratio of tetramer-associated clonotypes ([1]; clonotype frequency in tetramer^+ gate / clonotype frequency in bulk repertoire, Patient 5, t-test p < 0.0001 between antigens) | binding affinity to HLA-A*02:01 (HLA-A*02:01) | tetramer frequency, % of CD8^+ cells (positive patients) ([2]; 3 of 6 post-SCT AML patients, PE-UNC-CDK4-1/HLA-A*02:01 tetramer, 4°C, 25 minutes, threshold >0.01%) | tetramer^+ T-cell population frequency in Patient 5 ([2]; Patient 5, day +567 post-SCT, CMV seropositive, not viremic)
1 | ALTPVVVTL [UNC-CDK4-1] | 0.2% | > 17% and 17.1% | 1.04×10^1 | high affinity to HLA-A*02:01 | > 0.01% | 0.04%
2 | NLVPMVATV [pp65NLV, reference compound] |  | 0.002% |  |  |  | 
